From PMC5740082, “Identification of a CARM1 Inhibitor with Potent In Vitro and In Vivo Activity in Preclinical Models of Multiple Myeloma” (Scientific Reports, 2017)
Like-named read-outs stand apart in the source and are kept apart here.

Legend:
CARM1 = target: T1, CARM1 (Homo sapiens, UniProt Q86X55); test: CARM1 histone methyltransferase (biochemical) assay; details: for IC50: 30 min preincubation, IC50 measured at 120 minutes
T1 construct: FLAG-CARM1 (amino acids 2–585)-His for biochemical studies was expressed in 293 F mammalian cells; made in house; host or cells: 293F mammalian cells
T1 sequence (Q86X55 2-585 isoform Q86X55-1): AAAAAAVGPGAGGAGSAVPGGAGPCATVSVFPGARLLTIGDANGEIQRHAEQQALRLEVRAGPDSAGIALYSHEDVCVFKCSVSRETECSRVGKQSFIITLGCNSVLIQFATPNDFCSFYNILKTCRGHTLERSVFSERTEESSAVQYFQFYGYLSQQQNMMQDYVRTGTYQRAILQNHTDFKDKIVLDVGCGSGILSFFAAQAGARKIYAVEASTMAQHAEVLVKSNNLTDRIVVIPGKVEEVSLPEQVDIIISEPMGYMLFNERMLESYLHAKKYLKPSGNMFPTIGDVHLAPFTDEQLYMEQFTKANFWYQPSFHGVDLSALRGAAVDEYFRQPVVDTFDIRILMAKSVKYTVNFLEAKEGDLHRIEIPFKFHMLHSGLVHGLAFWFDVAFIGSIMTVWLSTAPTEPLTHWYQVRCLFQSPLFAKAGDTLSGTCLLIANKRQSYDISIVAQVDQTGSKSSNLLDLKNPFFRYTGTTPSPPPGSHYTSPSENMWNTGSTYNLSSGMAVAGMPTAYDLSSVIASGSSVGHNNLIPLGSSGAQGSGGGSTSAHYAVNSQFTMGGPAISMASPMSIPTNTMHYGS
Method: CARM1 activity was measured as previously reported for the histone methyltransferases PRMT1/6/8[65] and PRMT5[58]. Briefly, CARM1 was preincubated with compounds for 30 minutes at room temperature before reactions were initiated. […] The assays were quenched by the addition of 300 μM unlabeled SAM. The quantity of ^3H-labeled peptide produced was measured by Flashplate on a Topcount reader. Further details can be found in the Supplementary Methods.
Histone methyltransferase assay
The compounds were preincubated with CARM1 for 30 minutes at room temperature before the reactions were initiated by the addition of substrates. […]
containing 20 mM bicine, 1 mM tris(2-carbox yethyl)phosphine, 0.005% bovine skin gelatin and 0.002% Tween-20, pH 7.5 and 2% DMSO. The peptide sequence was biotin-aminohexanoate- […]
eKS AP-amide, where RMe is a monomethylated arginine residue (21st
Century Biochemicals, Marlboro, MA). After 2 hours, assa ys were quenched b y the addition of 300 μM unlabeled SAM. The reactions were tran sferred to a 384-well Flashplate (Perkin Elmer) and the biotinylated peptides were allowed to bind to the streptavidin surface for at least 1 hour before being washed once with 0.1% Tween 20. The quantit y of 3H-labeled peptide bound to the Flashplate surface was counted on a Topcount reader as counts per minute (cpm). % Inhibition values wer e calculated and IC50 values were fit using the 3 -param eter IC50 equation below:
YY = BBBBBBBBBBBB + (100 − BBBBBBBBBBBB )HHHHHHHH CCCCCCCCCCHHCCHHCCCCCC where top is fixed at 100 or the maximum inhibition plateau , Y is % inhibition and X is […]
IC50 vs [peptide] data were fit to the noncom petitive Cheng- Prusoff […]
The effect of reaction time on compound potency was determined b y meas uring IC50 values from […]
to a one phase exponential deca y equation. […]
activity was measured under standard conditions after a 30 minute preincubation.
IC 50 values were d etermi ned and data wer e anal yz ed using the following eq uation: […]

[1] = Pharmacokinetic profiles in mice and rats; type: in vivo
[2] = system: asymmetric di-methyl PABP1 in RKO cells; test: In cell western (ICW) assay for asymmetric di-methyl PABP1; details: Homo sapiens, 48 h, read-out: CARM1 ICW IC50
Method: In cell w estern assay f or detection of asymmetric di -methyl PABP1 an d DNA content RKO cells (ATCC) were maintained in growth medium (DMEM/Glutamax medium supplemented with 10% v/v heat inactivated fetal bovine serum and 100 units/mL penicillin-streptom ycin) and cultured at 37 °C under 5% CO2. Cells were seeded in assay medium at a concentration of 30,000 cells per m L to a pol y -D-l ys ine coated 384 well culture plate with 50 µ L per well. Compound (100 nL) from a 96-well sou rce plate was add ed directl y to 384 well cell plate. Plates were incubated at 37°C, 5% CO2 for 48 hours. After two da ys of incubation, plates were brought to room temperature outside of the incubator for ten minutes and blotted on paper towels to remove cell media. Cells were fixed for 20 minutes atroom temperature b y adding 50 µl of 8% PFA followed by aspiration of supernatant. Cells were then permeabilized by addition of 50 µ L of i ce cold 100% methanol directl y to each well and incubated for 30 min at room temperature. After 30 min, plates were washed 2 times with 100 µL per well of wash buffer (1X PBS). Next 60 µL per well of Odysse y blocking buffer (Od ysse y Buffer wi th 0.1% Tween 20 (v/v)) were added to each plate and incubat ed 1 hour at room temperature. Blocking buffer was removed and 20 µ L per well of primar y antibod y was added (as ymmetric-methyl PABP1) diluted 1:400 in Odysse y buffer with 0.1% Tween 20 (v/v)) and plates were incubated overni ght (16 hours) at 4°C. Plates were washed 5 times wit h 100 µ L per well of wash buffer. Next 20 µL per well of secondar y ant ibody was added (1:800 800CW goat anti-rabbit IgG (H+L) antibod y, 1:2000 DRAQ5 in Odyss ey buffer with 0.1% Tween 20 (v/v)) and incubated for 1 hour at room temperature. The plates were washed 5 times wit h 100 µ L per well wash buffer then 2 times with 100 µ L per well of w ater . Plates were allowed to dr y at room temper ature t hen imag ed on the Lico r Od ysse y machine. The ratio of as ymmetri c di-methyl PABP1 to DR AQ5 was det ermined for each well and then used to determine percent i nhibition relative to DMSO control. IC 50 curves were generated us ing triplicate wells per concentration of compound.

[3] = system: 20 other diverse HMTs in the Epizyme enzyme panel; test: Methyltransferase cross screening panel
[4] = system: PABP1, SmB, aDMA and histone H3 methylation in RPMI-8226 cells; test: Western blot of cellular methyl marks, RPMI-8226; type: cell-based, human; details: for IC50: Homo sapiens
[5] = read-out: CARM1 Biochemical IC50

In the case of `CNC[C@@H](O)COc1ccc(Cl)c(-c2nc(-c3c(C)noc3C)c(C)c(N3Cc4cnc(N5CCC5)nc4C3)n2)c1` [EPZ025654], the IC50 (CARM1; [5]) is reported as 3 nM, the pharmacokinetic profiles [1] is reported as “without satisfactory pharmacokinetic profiles” and the IC50 [2] is reported as 11 nM.
For `CC(C)n1ncc2c(N3CCOCC3)cc(-c3cccc(OCC(O)CN)c3)nc21` (stereo not drawn) [Compound 2], the “fold more potent against CARM1 than compound 1” value (CARM1) was 50 fold, the IC50 (CARM1; [5]) was 46 ± 9 nM and the “selectivity for CARM1 over 20 other diverse HMTs” value [3] was “more than 100 fold”. It also gave an IC50 [2] of 19000 nM.
For `Cn1cnc2ccc(-c3cccc(OCC(O)CN)c3)nc21` (stereo not drawn) [Compound 1], the IC50 (CARM1; read-out: CARM1 IC50) was 2300 ± 800 nM and the IC50 [2] was > 20000 nM.
In the case of `CNC[C@@H](O)COc1cc(-c2nc(-c3c(C)noc3C)c(C)c(N3CC4(CCN(C(=O)OC)CC4)C3)n2)ccc1Cl` [EPZ029751, methyl 2-(2-(4-chloro-3-((R)-2-hydroxy-3-(methylamino)propoxy)phenyl)-6-(3,5-dimethylisoxazol-4-yl)-5-methylpyrimidin-4-yl)-2,7-diazaspiro[3.5]nonane-7-carboxylate], the “biochemical potency against CARM1 compared with EZM2302” value (CARM1) is reported as “much weaker biochemical potency”, the IC50 (CARM1; [5]) is reported as > 1000 nM and the IC50 ([4]; 96 h, RPMI-8226, four days, 0.0003 to 5 µM, read-out: IC50, SmBme0) is reported as > 5000 nM. For the same compound, the IC50 ([4]; RPMI-8226, 96 h treatment, read-out: IC50, methylation of PABP1 (PABP1me2a)) was > 5000 nM, the changes in methylation ([4]; RPMI-8226, four days) was “No robust changes in methylation” and the IC50 [2] was > 6500 nM.
